The text below walks through data of patent publication US9782429B2, “Formulation having mobilizing activity” (GENTIUM SPA, priority 2000, dated 2017).

For this assay, the system named is white blood cells (WBC). Nature of the assay: Effect of G-CSF and/or defibrotide on the amount of white blood cells in murine blood. Particulars: mice, IP injection, 5 days treatment; FIG. 1. The class given is in vivo, BALB/c mice. As to the method:
This experiment was carried out to evaluate the effect of the administration of G-CSF and/or defibrotide (DEF) on the amount of white blood cells (WBC) present in murine blood. BALB/c mice from 6 to 8 weeks old and having a body weight of from 20 to 25 g were subjected to intraperitoneal (IP) injections of G-CSF (5 μg/mouse/day), DEF (1 mg/mouse/day), or a combination of G-CSF (5 μg/mouse/day) and increasing doses of DEF (1, 10, 15 mg/mouse/day). A saline solution, buffered to 0.1%, of […] (PBS/MSA) was administered by IP injection to the control mice which had not received G-CSF and/or DEF. The mice were treated for 5 days and sacrificed after 3 or 5 days of treatment, or 3 days after therapy had ceased. The following symbols were used to represent each group of mice: G-CSF (▪) (n=24), DEF 1 (◯) (n=3), G-CSF+DEF 1 (♦) (n=13), G-CSF+DEF 10 (▴) (n=6), G-CSF+DEF 15 (●) (n=23). The mean white blood cell count in PBS/MSA in the control mice was 2.87±0.2×10^6/ml of blood; the data ate expressed as mean± standard error of the mean (SEM).

Turning to defibrotide, the “amount of white blood cells in circulation in murine blood” value is “does not have a positive influence”.
